Assay results: US5691334A, “Pyrrolydenemethyl-derivatives and process for their preparation” (Pharmacia & Upjohn S.p.A., priority 1993, dated 1997)
Where a name gives a salt, the structure may show the parent alone. Read-outs that look alike come from different tables or passages of the source.

Key:
murine splenocytes = test: Lymphocyte proliferation (tests 1 and 2: murine splenocytes induced by ConA / by irradiated allogenic spleen cells, MLR); format: cell-based; settings: for IC50: Mus musculus, Splenocyte, read-out: IC50 lymphocyte proliferation (upper and lower limits); for TI (therapeutic index): ratio of mean IC50 on tumor cells growth (test 3) to IC50 on lymphocytes proliferation (tests 1 and 2)
Method: Proliferation of murine splenocytes induced by the mitogen Concanavaline A.
Proliferation of murine splenocytes induced by irradiated allogenic murine spleen cells (MLR).
Tests 1 and 2 allow the study of the compounds on proliferation models mediated by T-cell growth factors (e.g. IL-2) and are considered immunologically specific.
Spleens were aseptically removed from C57B1/6 mice and a cell suspension prepared in complete medium. Cell viability was evaluated by trypan blue exclusion.
Spleen cells (4×10^5) were cultured in triplicate in a volume of 0.15 ml, in flat bottomed microculture plates, in the absence or presence of an optimal concentration of ConA (1.7 microgr/ml) and of different concentrations of the test compound. Cultures were incubated for 72 h at 37° C. in a humidified, 5% CO2 incubator; 18 h before termination of the cultures, 0.2 microCi of [methyl-^3 H]thymidine were added to each well. Cells were harvested on glass fiber filters and the [^3 H]TdR uptake (cpm) quantified in a liquid scintillation counter.
Spleens were aseptically removed from C57B1/6 mice (responders) and Balb/c mice (stimulators), and cell suspensions prepared in complete medium. Responder cells (1×10^6) were cocultured in triplicate with irradiated (1500R) stimulator cells (5×10^5) in a volume of 0.15 ml in the presence or absence of different concentrations of the test compound, in flat bottomed microculture plates. Cultures were incubated for 96 h at 37° C. in a humidified, 5% CO2 incubator; the last 18 h in the presence of 0.2 microCi of ^3 H-TdR.
Cells were harvested on glass fiber filter and the ^3 H-TdR uptake (cpm) quantified in a liquid scintillation counter.
The concentration inhibiting 50% (IC50) of the cell proliferation in the different settings is calculated for the test compounds and the reference standard UP. The ratio between the mean IC50 values on tumor cells growth (test 3) and the IC50 on lymphocytes proliferation (measured by test 1 and 2) produces the therapeutic index (TI) of the compounds.

[1] = system: tumor cell lines (human erythroleukemia K562, murine melanoma B16); test: Tumor cell growth (test 3: proliferation of human erythroleukemia K562, murine melanoma B16; MTT); format: cell-based; settings: read-out: IC50 tumor cell growth (upper and lower limits)
Method: Proliferation of tumor cell lines (human erythroleukemia K562, murine melanoma B16).
Test 3 allows to investigate the inhibitory effect of the present compounds on a generic proliferation pathway, independent from immune-specific growth factors.
Tumor cells were collected in the logarithmic phase of growth and seeded in triplicate in flat bottomed microculture plates at the concentration of 1×10^4 in the presence or absence of different concentrations of the test compound. After 48 h incubation at 37° C. in 5% CO2, the cell viability was evaluated by the MTT colorimetric method according to Ferrari et al., J. Immunol.
The concentration inhibiting 50% (IC50) of the cell proliferation in the different settings is calculated for the test compounds and the reference standard UP.

[2] = tests 1 and 2, [3H]thymidine uptake, ConA 72 h, MLR 96 h, limits in parentheses
[3] = test 3, mean IC50 on tumor cells (K562, B16), 48 h, MTT, limits in parentheses

| Compound | IC50 (murine splenocytes) | TI (therapeutic index) (murine splenocytes) | IC50 ([1]; K562, 48 h) | IC50 (murine splenocytes; [2]) | IC50 [1, 3] |
| --- | --- | --- | --- | --- | --- |
| CCCCCCCCCCCC1=NC(=Cc2[nH]c(-c3ccc[nH]3)cc2OC)C=C1.Cl [UP, 4-methoxy-5-[(5-undecyl-2H-pyrrol-2-ylidene)methyl]-2,2'-bi-1H-pyrrole, hydrochloride, reference compound] | 0.0029 µg/mL | 36 | 0.106 µg/mL | – | – |
| CCCCCCCCCCCC1=NC(=Cc2[nH]c(-c3ccc[nH]3)cc2OCc2ccccc2)C=C1.Cl [FCE 29002, 4-benzyloxy-5-[(5-undecyl-2H-pyrrol-2-ylidene)methyl]-2,2'-bi-1H-pyrrole, hydrochloride] | 0.0301 µg/mL | 193 | 5.8 µg/mL | – | – |
| CCCCCCCCCCCC1=NC(=Cc2[nH]c(-c3ccc[nH]3)cc2OCCCC)C=C1 [FCE 28789, 4-buthoxy-5-[(5-undecyl-2H-pyrrol-2-ylidene)methyl]-2,2'-bi-1H-pyrrole, hydrochloride] | – | 66 | – | 0.0119 µg/mL | 0.784 µg/mL |
| CCCCCCCCCCCCCC1=NC(=Cc2[nH]c(-c3ccc[nH]3)cc2OC)C=C1.Cl [FCE 28526, 4-methoxy-5-[(5-tridecyl-2H-pyrrol-2-ylidene)methyl]-2,2'-bi-1H-pyrrole, hydrochloride] | – | 290 | – | 0.002 µg/mL | 0.584 µg/mL |
| CCCCCCCCCCCC1=NC(=Cc2[nH]c(-c3ccc[nH]3)cc2OCC)C=C1.Cl [FCE 28512, 4-ethoxy-5-[(5-undecyl-2H-pyrrol-2-ylidene)methyl]-2,2'-bi-1H-pyrrole, hydrochloride] | 0.0023 µg/mL | 222 | 0.511 µg/mL | – | – |
| CCCCCCCCCCCCCC1=NC(=Cc2[nH]c(-c3ccc[nH]3)cc2OCC)C=C1.Cl [FCE 28733, 4-ethoxy-5-[(5-tridecyl-2H-pyrrol-2-ylidene)methyl]-2,2'-bi-1H-pyrrole, hydrochloride] | 0.0051 µg/mL | 168 | 0.859 µg/mL | – | – |
